Source: patent publication US12697313B2, “Methods of treating anemia using formoterol or a pharmaceutically acceptable salt thereof” (Dana-Farber Cancer Institute, Inc., priority 2022, dated 2026)
Entries after “also recorded” stand apart in the source; their conditions may differ.

Tests used:
RPS14 KD HSPCs = assay: Erythroid differentiation in RPS14 knockdown HSPCs; assay type: cell-based, human; conditions: RPS14 KD HSPCs vs DMSO; FIG. 6D, FIG. 46
Text: Since RIOK2-deficient primary human HSPCs effectively model impaired erythropoiesis leading to anemia (Ghosh et la. (2022) Nat Immunol 23: 109-121), it was next investigated whether treatment with formoterol fumarate (FF) alleviates anemia in this in vitro model. To address this, RIOK2-proficient and deficient primary human HSPCs via CRISPR-Cas9 based genome-editing were generated (FIG. 6A), as previously described (Ghosh et al. (2022) Nat Immunol 23: 109-121). […] Since RPS14 deletion is reported to be MDS-genic (Ebert et al. (2008) Nature 451: 335-339; Schneider et al. (2016) Nat Med 22: 288-297), RPS14 was similarly knocked down in primary human HSPCs (FIG. 6C).
(§1) Next, to validate the specificity of FF for β2-adrenoreceptors, ADRB2 was knocked down in primary human HSPCs and treated with FF.
(§2) Primary human HSPCs were genome-edited, as previously described (Ghosh, S., Raundhal, M., Myers, S. A., Carr, S. A., Chen, X., Petsko, G. A., and Glimcher, L. H. (2022). Identification of RIOK2 as a master regulator of human blood cell development. Nat Immunol 23, 109-121).

wild-type C57BL/6J mice [1] = assay: Dose-specific effects of FF i.p. daily for 30 days in naive wild-type mice (Example 3); assay type: in vivo; conditions: for monocyte counts: FIG. 85B; for hemoglobin (Hb) levels: FIG. 84A; for RBC parameters (Hb, HCT %, RBC numbers): FIG. 84
Method: As described in Example 1 above, formoterol fumarate (FF) treatment of wild-type mice was well-tolerated (FIGS. 14A-14E). The effects of varying doses of FF from 0.1 up to 1.0 mg/kg were evaluated in naive mice without any external stress of phenylhydrazine (PHZ). Specifically, varying doses of FF 0.1-0.3-0.5-1.0 mg/kg or vehicle (0.3% DMSO in saline) were administered via intraperitoneal (i.p.) injection in 10-12 week old wild-type C57BL/6J mice daily for a period of 30 days.

ADRB2-deficient HSPCs = assay: Erythroid differentiation in ADRB2-deficient HSPCs (specificity for β2-adrenoreceptors); assay type: cell-based, human; conditions: ADRB2 knocked down HSPCs; FIG. 6E-6F
Text: as §1, §2

[2] = system: MDS patient-derived BM progenitors; assay: Semi-solid methylcellulose culture of MDS patient-derived BM progenitors; assay type: cell-based, human
Text: These findings prompted further testing to determine whether administration of FF in MDS patient-derived bone marrow (BM) samples improves erythroid differentiation in an ex vivo setting. To explore this, cells isolated from BM aspirates of de-identified MDS patients were procured. Next, the MDS patient-derived BM cells were placed in liquid erythroid differentiation culture, as previously described (Khajuria et al. (2018) Cell 173: 90-103), with or without FF treatment. […] To further validate this observation, the impact of FF from another vendor (Sigma) was tested on MDS patient-derived cells. […] Next, CD34+ progenitors were FACS-sorted from the MDS patient-derived BM aspirates and seeded in semi-solid methylcellulose culture media with vehicle (DMSO) or FF treatment. […] Therefore, the FDA-approved drug formoterol fumarate could be repurposed to reverse anemia in a range of hematological disorders.
After genome editing, primary human HSPCs were washed twice with 1× PBS and mixed with semi-solid methylcellulose medium (H4034 StemCell Technologies) by brief vortexing. Cells were plated at a density of 2000 per well in a 6-well plate followed by incubation in a humidified chamber at 37° C. for 14 days. Imaging of the colonies was performed using EVOS M5000 Imaging system® (ThermoFisher Scientific). […]

wild-type mice = assay: FF oral gavage in wild-type mice at steady-state; assay type: in vivo
Text: N=5 mice per group. All comparisons were done w.r.t. vehicle treated (DMSO) controls.

wild-type C57BL/6J mice [3] = assay: FF daily i.p. in wild-type mice at steady-state (pilot study); assay type: in vivo
Method: The murine β2-adrenoreceptor has 87.08% similarity to the protein composition of the human analog. This encouraged further testing to determine whether formoterol fumarate (FF) treatment in wild-type mice under steady state or hemolytic anemia produces any alleviating effect in vivo. To address this, varying doses of FF 0.1-0.3-0.5-1.0 mg/kg or vehicle (0.3% DMSO in saline) were administered via intraperitoneal (i.p.) injection in 10-12 week old wild-type C57BL/6J mice daily for 3 weeks along with weekly submandibular cheek bleeding to analyze complete blood counts (CBC).
C57BL/6J mice were obtained from Jackson laboratories and were housed for at least 2 weeks at the Dana-Farber Cancer Institute (DFCI) animal resources facility before beginning experiments. All drug treatments have been mentioned in detail in the text.

primary human HSPCs = assay: Methylcellulose colony-formation assay, primary human HSPCs; assay type: cell-based; conditions: n=4 healthy donors; vs DMSO; FIG. 4
Method: Given the involvement of β2-AR in erythropoiesis, it was hypothesized that administration of long-acting selective β2-AR agonist FF might promote erythroid differentiation. To address this, primary human HSPCs were treated with varying doses of FF (Selleckchem). […] To ascertain if FF administration plays a role further upstream in the erythroid differentiation pathway, methylcellulose colony-formation assays were performed.
After genome editing, primary human HSPCs were washed twice with 1× PBS and mixed with semi-solid methylcellulose medium (H4034 StemCell Technologies) by brief vortexing. Cells were plated at a density of 2000 per well in a 6-well plate followed by incubation in a humidified chamber at 37° C. for 14 days. Imaging of the colonies was performed using EVOS M5000 Imaging system® (ThermoFisher Scientific). The colony-forming cells were then collected by triturating the wells using staining buffer and multi-color flow cytometry was performed as previously described (Li et al. (2014) Blood 124: 3636-3645).

[4] = system: phenylhydrazine (PHZ)-mediated stress-induced anemic mice; assay: Sublethal PHZ (50 mg/kg)-induced hemolytic anemia, female mice, FF i.p.; assay type: in vivo

COc1ccc(C[C@@H](C)NC[C@H](O)c2ccc(O)c(NC=O)c2)cc1.O=C(O)/C=C/C(=O)O [FF, (E)-but-2-enedioic acid;N-[2-hydroxy-5-[(1R)-1-hydroxy-2-[[(2R)-1-(4-methoxyphenyl)propan-2-yl]amino]ethyl]phenyl]formamide]
erythroid differentiation (CD235a) (RPS14 KD HSPCs): significantly increased erythroid differentiation in RPS14 KD HSPCs; also recorded: increases erythroid differentiation (CD235a) in RPS14 KD HSPCs; also recorded: moderately rescues erythropoiesis | monocyte counts (wild-type C57BL/6J mice [1]; 0.1 mg/kg and 1.0 mg/kg): but not at the lowest dose (0.1 mg/kg) or highest dose (1.0 mg/kg) | hemoglobin (Hb) levels (wild-type C57BL/6J mice [1]; 0.1 mg/kg to 0.5 mg/kg): increased with dose | hematocrit (HCT) % and RBC counts (wild-type C57BL/6J mice [1]; 0.3 mg/kg and 0.5 mg/kg, FIG. 84B-84C): elevated | body weights (wild-type C57BL/6J mice [1]; 1.0 mg/kg): pronounced increase in body weights | RBC parameters (Hb, HCT %, RBC numbers) (wild-type C57BL/6J mice [1]; 1.0 mg/kg): this effect is not observed | hemoglobin (Hb) levels (wild-type C57BL/6J mice [1]; 1.0 mg/kg): no effect was observed | white blood cell (WBC) count (wild-type C57BL/6J mice [1]; 1.0 mg/kg, FIG. 85A): modestly impacts WBC; also recorded: only marginally affected | body weights (wild-type C57BL/6J mice [1]; 0.1-0.5 mg/kg): modestly increasing body weights | % change in body weights (wild-type C57BL/6J mice [1]; 0.1/0.3/0.5/1.0 mg/kg daily i.p., FIG. 83): increases body weights in a dose-dependent manner; also recorded: showed a dose-dependent increase in body-weight | RBC parameters (Hb, HCT %, RBC numbers) (wild-type C57BL/6J mice [1]; 0.3 and 0.5 mg/kg): enhance and sustain RBC parameters | monocyte counts (wild-type C57BL/6J mice [1]; 0.3 and 0.5 mg/kg): modestly impacts monocyte counts; also recorded: marginally affected | platelets (wild-type C57BL/6J mice [1]; any dose, FIG. 85C): No significant effect was observed | white blood count (WBC) numbers (wild-type C57BL/6J mice [1]; lowest doses, FIG. 85A): does not influence | erythroid differentiation (ADRB2-deficient HSPCs): failed to induce erythropoiesis in ADRB2-deficient HSPCs; also recorded: inability of FF to induce erythroid differentiation | viability, myelopoiesis (CFU-GM), megakaryopoiesis (CFU-Mk) ([2]; FIG. 11D): produced insignificant effects on the viability, myeloid and megakaryocytic differentiation; also recorded: does not affect viability, myelopoiesis (CFU-GM) or megakaryopoiesis (CFU-Mk) | erythroid progenitors BFU-E and CFU-E ([2]; n=23 MDS patients, vs DMSO, FIG. 11A-11C): significantly boosted both BFU-E and CFU-E formation; also recorded: enhances differentiation of erythroid progenitors in MDS patient-derived bone marrow cells | RBC parameters (HCT %, RBC numbers, Hb) in peripheral blood (wild-type mice; 14 days of daily o.g., FIG. 48): increases RBC parameters | WBCs, monocytes and platelets in peripheral blood (wild-type mice; 14 days of daily o.g., FIG. 49): does not affect WBC parameters | mitochondrial membrane potential (TMRE staining) in BMPs (wild-type mice; 14 days of daily o.g., FIG. 50): increases viability and mitochondrial membrane potential | viability of bone marrow progenitors (BMPs) (wild-type mice; 14 days of daily o.g., FIG. 50): increases viability and mitochondrial membrane potential | MEP and MkP (wild-type mice; 14 days of daily o.g., FIG. 51): increases megakaryocyte erythroid progenitors (MEP) and megakaryocytic progenitors (MkP) | granulocyte monocyte progenitors (GMP) (wild-type mice; 14 days of daily o.g., FIG. 51): does not affect granulocyte monocyte progenitors (GMP) | % change in body weights (wild-type mice; o.g., steady state, FIG. 53): mildly increases body weights | body weights (wild-type C57BL/6J mice [3]; 0.3-0.5 and 1.0 mg/kg daily i.p., FIG. 14A): mildly increased body weights of mice, but the values did not reach significance | RBC parameters (RBC numbers, HCT %, Hb) in peripheral blood (wild-type C57BL/6J mice [3]; 14 days of daily i.p., FIG. 14C-14E): slightly elevated; also recorded: mildly increases RBC parameters | WBC and monocyte counts in peripheral blood (wild-type C57BL/6J mice [3]; 14 days of daily i.p., FIG. 14F-14G): remained marginally affected; also recorded: does not affect white blood cell (WBC) or monocyte counts | mitochondrial biogenesis in PBMCs (MitoTracker staining) (wild-type C57BL/6J mice [3]; all doses, day 14 of daily i.p., FIG. 14B): significantly enhanced mitochondrial biogenesis; also recorded: enhances mitochondrial biogenesis | tolerability (body weights, mobility, activeness, breathing patterns) (wild-type C57BL/6J mice [3]; daily i.p. 0.1-0.3-0.5-1.0 mg/kg): well-tolerated | BFU-E and CFU-E formation (primary human HSPCs): significantly increased blast-forming unit-erythroid (BFU-E) and colony-forming unit-erythroid (CFU-E) formation; also recorded: enhances blast forming unit-erythroid (BFU-E) and colony forming unit-erythroid (CFU-E) formation | body weights (absolute and % change) ([4]; 0.1/0.3 mg/kg daily i.p., female, FIG. 18A): sufficient to revive body weights; also recorded: increases absolute body weights and % change in body weights | HCT % and RBC counts ([4]; 0.1/0.3 mg/kg, FIG. 18B): produced long-term benefits in elevating HCT % and RBC counts | Hb production ([4]; 0.1/0.3 mg/kg, FIG. 18B): significantly enhanced Hb production | RBC parameters (Hb, HCT %, RBC numbers) in peripheral blood ([4]; 0.1/0.3 mg/kg, FIG. 18B): enhances and sustains RBC parameters | platelet counts ([4]; FIG. 18C): not statistically significant | WBC and monocyte counts ([4]; day 4 and over 14 days, FIG. 18C): provided an immediate boost to WBC and monocyte counts after PHZ administration, no long term benefits were observed; also recorded: increases WBC and monocyte counts in the peripheral blood after 4 days of daily i.p. injections but does not sustain the impact over 14 days
